Measurements taken from patent publication US8471005B2 (Cephalon, Inc., priority 2008, dated 2013).
Read-outs that look alike come from different tables or passages of the source.

Columns and labels:
[1] = target: T1, ALK (Homo sapiens, UniProt Q9UM73); experiment: ALK Kinase Assay (ELISA/TRF, PLC-γ substrate); assay type: biochemical; details: read-out: ALK Potency
T1 construct: host or cells: baculovirus expression system
In short: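 Read-out is time-resolved fluorescence from a Eu-N1-labeled PT66 antibody that binds phosphorylated PLC-γ, the substrate coated at 10 μg/mL in TBS. ALK at 30 ng/ml starts the reaction, which runs 15 minutes at 37° C.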

[2] = target: T2, JAK2 (Homo sapiens, UniProt O60674); experiment: Recombinant Human JAK2 Kinase Assay (TRF); assay type: biochemical; details: read-out: JAK2 Potency
T2 construct: host or cells: baculovirus expression system
T2 sequence (O60674 whole entry): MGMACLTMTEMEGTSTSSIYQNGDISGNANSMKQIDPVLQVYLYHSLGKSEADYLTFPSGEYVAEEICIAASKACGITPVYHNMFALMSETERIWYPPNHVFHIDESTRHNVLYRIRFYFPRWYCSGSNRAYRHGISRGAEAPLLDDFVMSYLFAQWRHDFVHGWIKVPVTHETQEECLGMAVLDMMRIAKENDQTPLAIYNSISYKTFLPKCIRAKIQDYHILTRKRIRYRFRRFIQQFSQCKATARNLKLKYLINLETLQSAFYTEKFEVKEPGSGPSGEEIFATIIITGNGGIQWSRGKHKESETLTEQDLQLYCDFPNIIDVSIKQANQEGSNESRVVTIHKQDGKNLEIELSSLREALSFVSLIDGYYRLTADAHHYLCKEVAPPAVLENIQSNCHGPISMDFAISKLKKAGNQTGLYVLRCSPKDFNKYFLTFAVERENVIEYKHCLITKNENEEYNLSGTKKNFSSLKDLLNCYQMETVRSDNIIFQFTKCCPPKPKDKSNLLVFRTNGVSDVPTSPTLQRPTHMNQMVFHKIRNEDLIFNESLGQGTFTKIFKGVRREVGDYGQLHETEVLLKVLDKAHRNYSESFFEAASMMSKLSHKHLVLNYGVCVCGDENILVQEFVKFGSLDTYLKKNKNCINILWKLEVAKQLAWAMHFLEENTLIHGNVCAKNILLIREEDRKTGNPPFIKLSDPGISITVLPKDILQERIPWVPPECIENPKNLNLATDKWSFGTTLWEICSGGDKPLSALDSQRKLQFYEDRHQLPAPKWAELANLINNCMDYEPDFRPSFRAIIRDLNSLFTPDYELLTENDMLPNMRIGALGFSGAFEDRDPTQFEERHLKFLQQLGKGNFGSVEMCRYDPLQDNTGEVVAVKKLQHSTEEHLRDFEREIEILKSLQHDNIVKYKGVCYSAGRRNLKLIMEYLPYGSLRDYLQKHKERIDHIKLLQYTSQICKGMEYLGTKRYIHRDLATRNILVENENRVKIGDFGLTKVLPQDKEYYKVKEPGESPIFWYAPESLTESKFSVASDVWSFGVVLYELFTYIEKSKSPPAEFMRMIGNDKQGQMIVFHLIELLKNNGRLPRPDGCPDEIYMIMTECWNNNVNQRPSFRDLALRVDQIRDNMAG
In short: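 Baculovirus-expressed JAK2 (15 ng/ml) phosphorylated a biotinylated 15-mer peptide captured on Neutravidin, in 20 mM HEPES pH 7.2, 0.2 μM ATP, 1 mM MnCl2, 0.1% BSA, 2.5% DMSO final, 20 min at room temperature. Phosphoproduct detected by time-resolved fluorescence with Eu-N1-labelled PY100 antibody.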

[3] = ALK kinase inhibition, 1 μM ATP
[4] = JAK2 kinase inhibition, 0.2 μM ATP

T1 sequence (Q9UM73 19-1620): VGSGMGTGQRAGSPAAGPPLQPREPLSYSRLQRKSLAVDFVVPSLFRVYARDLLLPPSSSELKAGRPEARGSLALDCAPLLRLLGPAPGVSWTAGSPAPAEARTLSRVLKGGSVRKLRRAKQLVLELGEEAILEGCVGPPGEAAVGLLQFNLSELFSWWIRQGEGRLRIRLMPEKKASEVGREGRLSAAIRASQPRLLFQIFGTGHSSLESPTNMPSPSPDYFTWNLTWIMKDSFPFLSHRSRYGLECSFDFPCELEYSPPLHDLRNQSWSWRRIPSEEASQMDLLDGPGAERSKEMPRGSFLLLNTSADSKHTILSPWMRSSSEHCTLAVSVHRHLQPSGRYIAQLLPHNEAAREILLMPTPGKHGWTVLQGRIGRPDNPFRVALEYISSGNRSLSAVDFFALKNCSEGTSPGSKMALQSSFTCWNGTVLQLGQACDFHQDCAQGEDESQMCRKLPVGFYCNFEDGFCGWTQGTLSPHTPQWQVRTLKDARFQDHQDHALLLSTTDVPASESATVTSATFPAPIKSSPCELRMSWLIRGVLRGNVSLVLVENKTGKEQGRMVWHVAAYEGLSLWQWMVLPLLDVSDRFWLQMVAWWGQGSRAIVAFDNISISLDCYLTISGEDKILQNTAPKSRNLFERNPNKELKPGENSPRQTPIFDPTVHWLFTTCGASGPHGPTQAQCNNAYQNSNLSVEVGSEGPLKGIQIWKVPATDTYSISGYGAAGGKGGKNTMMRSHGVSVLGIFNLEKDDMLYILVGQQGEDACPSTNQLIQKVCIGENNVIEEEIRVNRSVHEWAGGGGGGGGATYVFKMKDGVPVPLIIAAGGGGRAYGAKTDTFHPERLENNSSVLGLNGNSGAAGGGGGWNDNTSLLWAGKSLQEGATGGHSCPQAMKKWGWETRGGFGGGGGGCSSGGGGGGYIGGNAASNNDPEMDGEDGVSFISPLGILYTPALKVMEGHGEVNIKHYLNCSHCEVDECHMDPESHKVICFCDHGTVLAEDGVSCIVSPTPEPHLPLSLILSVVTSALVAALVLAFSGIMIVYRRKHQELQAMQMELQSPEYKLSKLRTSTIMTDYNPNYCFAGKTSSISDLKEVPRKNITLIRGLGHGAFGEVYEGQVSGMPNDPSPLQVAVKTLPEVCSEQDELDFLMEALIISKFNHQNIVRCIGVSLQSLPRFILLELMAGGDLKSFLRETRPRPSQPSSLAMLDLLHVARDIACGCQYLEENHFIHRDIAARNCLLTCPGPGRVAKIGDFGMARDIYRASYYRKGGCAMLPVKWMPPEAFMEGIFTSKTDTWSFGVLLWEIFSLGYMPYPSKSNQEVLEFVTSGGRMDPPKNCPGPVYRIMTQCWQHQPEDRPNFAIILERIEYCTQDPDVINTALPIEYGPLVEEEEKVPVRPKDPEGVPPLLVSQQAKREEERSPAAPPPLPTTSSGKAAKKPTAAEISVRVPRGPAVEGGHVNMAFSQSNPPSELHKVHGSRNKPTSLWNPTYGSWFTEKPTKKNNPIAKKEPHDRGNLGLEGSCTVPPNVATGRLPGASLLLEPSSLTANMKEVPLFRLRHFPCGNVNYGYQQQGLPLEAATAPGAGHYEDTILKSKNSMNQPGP

Q: What does the source list for `CN(C)C(=O)CN1CCc2ccc(Nc3ncc4ccc(Br)n4n3)cc2CC1` [Example 1574]?
A: IC50 ([1]; ALK Kinase Inhibition): 1000 to 10000 nM; IC50 ([2]; JAK2 Kinase Inhibition): < 100 nM

Q: Which IC50 ([1]; ALK Kinase Inhibition) does the source give for `FC1(F)Oc2cccc(-c3ccc4cnc(Nc5ccc6[nH]c(CN7CCOCC7)nc6c5)nn34)c2O1` [Example 1536, [7-(2,2-Difluoro-benzo[1,3]dioxol-4-yl)-pyrrolo[2,1-f][1,2,4]triazin-2-yl]-(2-morpholin-4-ylmethyl-1H-benzoimidazol-5-yl)-amine] here?
A: Its IC50 is 100 to 1000 nM.

Q: What about the IC50 ([2]; JAK2 Kinase Inhibition) of the same molecule?
A: The IC50 was under 100 nM.

Q: How did the IC50 [1, 3] turn out when `CCN(CC)C1CCN(c2ccc(Nc3ncc4ccc(-c5ccc(OC)nc5)n4n3)cc2)CC1` [Example 1206, [4-(4-Diethylamino-piperidin-1-yl)-phenyl]-[7-(6-methoxy-pyridin-3-yl)-pyrrolo[2,1-f][1,2,4]triazin-2-yl]-amine] was run?
A: Its IC50 is 100 to 1000 nM.

Q: And the IC50 [2, 4]?
A: The IC50 was under 100 nM.

Q: Which results are given for `COc1ccccc1-c1ccc2cnc(Nc3cccc(C(=O)N4CCOCC4)c3)nn12` [Example 327, {3-[7-(2-Methoxy-phenyl)-pyrrolo[2,1-f][1,2,4]triazin-2-ylamino]-phenyl}-morpholin-4-yl-methanone]?
A: IC50 ([1]; ALK Kinase Inhibition): 1000 to 10000 nM; IC50 ([2]; JAK2 Kinase Inhibition): < 100 nM

Q: What does the source list for `COc1ccccc1-c1ccc2cnc(Nc3ccc(N4CCC(CN5CCN(C)CC5)CC4)cc3)nn12` [Example 451, [7-(2-Methoxy-phenyl)-pyrrolo[2,1-f][1,2,4]triazin-2-yl]-{4-[4-(4-methyl-piperazin-1-ylmethyl)-piperidin-1-yl]-phenyl}-amine]?
A: IC50 ([1]; ALK Kinase Inhibition): < 100 nM; IC50 ([2]; JAK2 Kinase Inhibition): < 100 nM

Q: What does the source list for `COc1ccccc1-c1ccc2cnc(Nc3ccn(CC(=O)N4CCN(C)CC4)n3)nn12` [Example 1114, 2-{3-[7-(2-Methoxy-phenyl)-pyrrolo[2,1-f][1,2,4]triazin-2-ylamino]-pyrazol-1-yl}-1-(4-methyl-piperazin-1-yl)-ethanone]?
A: IC50 [1, 3]: 100 to 1000 nM; IC50 [2, 4]: < 100 nM

Q: For `O=S(=O)(c1cccc(-c2ccc3cnc(Nc4ccc(-c5cccnc5)cc4)nn23)c1)N1CCCC1` [Example 1086, (4-Pyridin-3-yl-phenyl)-{7-[3-(pyrrolidine-1-sulfonyl)-phenyl]-pyrrolo[2,1-f][1,2,4]triazin-2-yl}-amine], which IC50 [1, 3] is on record?
A: The IC50 was over 10000 nM.

Q: And the IC50 [2, 4]?
A: Its IC50 is under 100 nM.

Q: `COc1ccccc1-c1ccc2cnc(NC(=O)Nc3ccc(N4CCN(C)CC4)cc3)nn12` [Example 449, 1-[7-(2-Methoxy-phenyl)-pyrrolo[2,1-f][1,2,4]triazin-2-yl]-3-[4-(4-methyl-piperazin-1-yl)-phenyl]-urea] was tested. Which IC50 ([1]; ALK Kinase Inhibition) did it give?
A: The IC50 was 100 to 1000 nM.

Q: What about the IC50 ([2]; JAK2 Kinase Inhibition) of the same molecule?
A: Its IC50 is under 100 nM.

Q: With `COc1cc(C2CCN(C[C@@H](O)CO)CC2)c(F)cc1Nc1ncc2ccc(-c3ccccc3N(C)S(C)(=O)=O)n2n1` [Example 551, N-[2-(2-{4-[1-((R)-2,3-Dihydroxy-propyl)-piperidin-4-yl]-5-fluoro-2-methoxy-phenylamino}-pyrrolo[2,1-f][1,2,4]triazin-7-yl)-phenyl]-N-methyl-methanesulfonamide] as the molecule, how does the IC50 [1, 3] read?
A: The IC50 was under 100 nM.

Q: And the IC50 [2, 4]?
A: The IC50 was 1000 to 10000 nM.

Q: With `c1c[nH]c(-c2ccc3cnc(Nc4ccc(N5CCOCC5)cc4)nn23)c1` [Example 1291, (4-Morpholin-4-yl-phenyl)-[7-(1H-pyrrol-2-yl)-pyrrolo[2,1-f][1,2,4]triazin-2-yl]-amine] as the molecule, how does the IC50 [1, 3] read?
A: Its IC50 is 1000 to 10000 nM.

Q: What about the IC50 [2, 4] of the same molecule?
A: Its IC50 is under 100 nM.

Q: How did the IC50 [1, 3] turn out when `CC(C)(C)NS(=O)(=O)c1cccc(-c2ccc3cnc(Nc4ccc(C5CCC(N6CCCC6)CC5)cc4)nn23)c1` (stereo not drawn) [Example 566, N-tert-Butyl-3-{2-[4-(4-pyrrolidin-1-yl-cyclohexyl)-phenylamino]-pyrrolo[2,1-f][1,2,4]triazin-7-yl}-benzenesulfonamide] was run?
A: The IC50 was 100 to 1000 nM.

Q: What about the IC50 [2, 4] of the same molecule?
A: Its IC50 is under 100 nM.

Q: Which results are given for `CC(C)(C)C(=O)Nc1ccccc1-c1ccc2cnc(Nc3ccc(N4CCOCC4)cc3)nn12` [Example 401, 2,2-Dimethyl-N-{2-[2-(4-morpholin-4-yl-phenylamino)-pyrrolo[2,1-f][1,2,4]triazin-7-yl]-phenyl}-propionamide]?
A: IC50 ([1]; ALK Kinase Inhibition): > 10000 nM; IC50 ([2]; JAK2 Kinase Inhibition): < 100 nM

Q: What does the source list for `COc1ccccc1-c1ccc2cnc(Nc3ccc(C4CCN(C)CC4)cc3)nn12` [Example 1132, [7-(2-Methoxy-phenyl)-pyrrolo[2,1-f][1,2,4]triazin-2-yl]-[4-(1-methyl-piperidin-4-yl)-phenyl]-amine]?
A: IC50 [1, 3]: < 100 nM; IC50 [2, 4]: < 100 nM

Q: Which results are given for `COc1ccc(-c2ccc3cnc(Nc4ccc5c(c4)CCN(C)C5)nn23)cn1` [Example 919, [7-(6-Methoxy-pyridin-3-yl)-pyrrolo[2,1-f][1,2,4]triazin-2-yl]-(2-methyl-1,2,3,4-tetrahydro-isoquinolin-6-yl)-amine]?
A: IC50 [1, 3]: 100 to 1000 nM; IC50 [2, 4]: < 100 nM

Q: With `COc1c(Nc2ncc3ccc(-c4ccccc4N(C)S(C)(=O)=O)n3n2)ccc(N2CCN(C[C@H](C)O)CC2)c1F` [Example 1478, N-[2-(2-{3-Fluoro-4-[4-((S)-2-hydroxy-propyl)-piperazin-1-yl]-2-methoxy-phenylamino}-pyrrolo[2,1-f][1,2,4]triazin-7-yl)-phenyl]-N-methyl-methanesulfonamide] as the molecule, how does the IC50 ([1]; ALK Kinase Inhibition) read?
A: The IC50 was under 100 nM.

Q: What about the IC50 ([2]; JAK2 Kinase Inhibition) of the same molecule?
A: The IC50 was 1000 to 10000 nM.

Q: How did the IC50 ([1]; ALK Kinase Inhibition) turn out when `COc1ccc(-c2ccc3cnc(Nc4ccc(C5CNCCN5)cc4)nn23)cn1` (stereo not drawn) [Example 1529, [7-(6-Methoxy-pyridin-3-yl)-pyrrolo[2,1-f][1,2,4]triazin-2-yl]-(4-piperazin-2-yl-phenyl)-amine] was run?
A: Its IC50 is 100 to 1000 nM.

Q: What about the IC50 ([2]; JAK2 Kinase Inhibition) of the same molecule?
A: Its IC50 is under 100 nM.

Q: Which IC50 ([1]; ALK Kinase Inhibition) does the source give for `C=Cc1cc(-c2ccc(S(C)(=O)=O)cc2)n2nc(Nc3ccc(N4CCN(C)CC4)cc3)ncc12` [Example 104, [7-(4-Methanesulfonyl-phenyl)-5-vinyl-pyrrolo[2,1-f][1,2,4]triazin-2-yl]-[4-(4-methyl-piperazin-1-yl)-phenyl]-amine] here?
A: Its IC50 is 1000 to 10000 nM.

Q: And the IC50 ([2]; JAK2 Kinase Inhibition)?
A: The IC50 was under 100 nM.

Q: `CN(c1ccccc1-c1ccc2cnc(Nc3ccc4c(c3)C(C)(C)C(=O)N4)nn12)S(C)(=O)=O` [Example 632, N-{2-[2-(3,3-Dimethyl-2-oxo-2,3-dihydro-1H-indol-5-ylamino)-pyrrolo[2,1-f][1,2,4]triazin-7-yl]phenyl}N-methyl-methanesulfonamide] was tested. Which IC50 [1, 3] did it give?
A: The IC50 was under 100 nM.

Q: What about the IC50 [2, 4] of the same molecule?
A: The IC50 was under 100 nM.

Q: For `CSc1cc(N2CCN(C[C@H](C)O)CC2)c(F)cc1Nc1ncc2ccc(-c3ccccc3N(C)S(C)(=O)=O)n2n1` [Example 1483, N-[2-(2-{5-Fluoro-4-[4-((S)-2-hydroxy-propyl)-piperazin-1-yl]-2-methylsulfanyl-phenylamino}-pyrrolo[2,1-f][1,2,4]triazin-7-yl)-phenyl]-N-methyl-methanesulfonamide], which IC50 ([1]; ALK Kinase Inhibition) is on record?
A: The IC50 was under 100 nM.

Q: What about the IC50 ([2]; JAK2 Kinase Inhibition) of the same molecule?
A: Its IC50 is 1000 to 10000 nM.

Q: With `CN1CCN(C2CCCN(c3ccc(Nc4ncc5ccc(-c6cccc(Cl)c6)n5n4)cc3)C2)CC1` (stereo not drawn) [Example 350, [7-(3-Chloro-phenyl)-pyrrolo[2,1-f][1,2,4]triazin-2-yl]-{4-[3-(4-methyl-piperazin-1-yl)-piperidin-1-yl]-phenyl}-amine] as the molecule, how does the IC50 ([1]; ALK Kinase Inhibition) read?
A: The IC50 was under 100 nM.

Q: And the IC50 ([2]; JAK2 Kinase Inhibition)?
A: Its IC50 is under 100 nM.

Q: What does the source list for `COc1cc(N2CCC(N3CCCC3)CC2)ccc1Nc1ncc2ccc(-c3ccccc3OC)n2n1` [Example 481, [7-(2-Methoxy-phenyl)-pyrrolo[2,1-f][1,2,4]triazin-2-yl]-[2-methoxy-4-(4-pyrrolidin-1-yl-piperidin-1-yl)-phenyl]-amine]?
A: IC50 [1, 3]: < 100 nM; IC50 [2, 4]: 100 to 1000 nM

Q: `Cc1cc(-c2ccc3cnc(Nc4ccc(N5CCOCC5)cc4)nn23)cnc1F` [Example 1047, [7-(6-Fluoro-5-methyl-pyridin-3-yl)-pyrrolo[2,1-f][1,2,4]triazin-2-yl]-(4-morpholin-4-yl-phenyl)-amine] was tested. Which IC50 [1, 3] did it give?
A: Its IC50 is 1000 to 10000 nM.

Q: And the IC50 [2, 4]?
A: Its IC50 is under 100 nM.

Q: What does the source list for `CS(=O)(=O)c1cccc(-c2ccc3cnc(Nc4ccc5c(c4)CCC(N4CCOCC4)CC5)nn23)c1` (stereo not drawn) [Example 611, [7-(3-Methanesulfonyl-phenyl)-pyrrolo[2,1-f][1,2,4]triazin-2-yl]-(7-morpholin-4-yl-6,7,8,9-tetrahydro-5H-benzocyclohepten-2-yl)-amine]?
A: IC50 [1, 3]: 100 to 1000 nM; IC50 [2, 4]: < 100 nM

Q: What does the source list for `COc1ccc(-c2ccc3cnc(Nc4ccc(CN5CCCC5)cc4)nn23)cn1` [Example 1405, [7-(6-Methoxy-pyridin-3-yl)-pyrrolo[2,1-f][1,2,4]triazin-2-yl]-(4-pyrrolidin-1-ylmethyl-phenyl)-amine]?
A: IC50 ([1]; ALK Kinase Inhibition): 1000 to 10000 nM; IC50 ([2]; JAK2 Kinase Inhibition): < 100 nM

Q: For `CC(C)(C)NS(=O)(=O)c1cccc(-c2ccc3cnc(Nc4ccc(OCCN5CCCC5)cc4)nn23)c1` [Example 118, N-tert-Butyl-3-{2-[4-(2-pyrrolidin-1-yl-ethoxy)-phenylamino]-pyrrolo[2,1-f][1,2,4]triazin-7-yl}-benzenesulfonamide], which IC50 ([1]; ALK Kinase Inhibition) is on record?
A: Its IC50 is 100 to 1000 nM.

Q: And the IC50 ([2]; JAK2 Kinase Inhibition)?
A: The IC50 was under 100 nM.

Q: How did the IC50 [1, 3] turn out when “N-[2-(2-{4-[4-(2-Hydroxy-ethyl)-piperazin-1-yl]-phenylamino}-pyrrolo[2,1-f][1,2,4]triazin-7-yl)-phenyl]-N-methyl-methanesulfonamide [Example 1171]” was run?
A: The IC50 was under 100 nM.

Q: What about the IC50 [2, 4] of the same molecule?
A: Its IC50 is under 100 nM.

Q: How did the IC50 ([1]; ALK Kinase Inhibition) turn out when `CC(C)(O)CN1CCN(c2cccc(Nc3ncc4ccc(-c5cccc(Cl)c5)n4n3)c2)CC1` [Example 220, 1-(4-{3-[7-(3-Chloro-phenyl)-pyrrolo[2,1-f][1,2,4]triazin-2-ylamino]-phenyl}-piperazin-1-yl)-2-methyl-propan-2-ol] was run?
A: Its IC50 is 100 to 1000 nM.

Q: What about the IC50 ([2]; JAK2 Kinase Inhibition) of the same molecule?
A: The IC50 was under 100 nM.

Q: What does the source list for `COc1ccccc1-c1ccc2cnc(Nc3ccc4nc(C(F)(F)F)[nH]c4c3)nn12` [Example 1305]?
A: IC50 [1, 3]: 1000 to 10000 nM; IC50 [2, 4]: < 100 nM

Q: How did the IC50 ([1]; ALK Kinase Inhibition) turn out when `Oc1ccc(-c2ccc3cnc(Nc4ccc(N5CCOCC5)cc4)nn23)cn1` [Example 331, 5-[2-(4-Morpholin-4-yl-phenylamino)-pyrrolo[2,1-f][1,2,4]triazin-7-yl]-pyridin-2-ol] was run?
A: Its IC50 is 1000 to 10000 nM.

Q: What about the IC50 ([2]; JAK2 Kinase Inhibition) of the same molecule?
A: The IC50 was under 100 nM.

Q: What does the source list for `COc1ccc(-c2ccc3cnc(Nc4ccc5c(c4)CN(C)C5)nn23)cn1` [Example 937, [7-(6-Methoxy-pyridin-3-yl)-pyrrolo[2,1-f][1,2,4]triazin-2-yl]-(2-methyl-2,3-dihydro-1H-isoindol-5-yl)-amine]?
A: IC50 [1, 3]: 1000 to 10000 nM; IC50 [2, 4]: < 100 nM
